Data taken from PubChem BioAssay AID1963873 (Molecular Pharmacology Branch, DTP, NCI, 2024).

Tested on: 276233-004-R-J1-PDC KRAS spheroids with HUVEC/MSC, viability
Assay: Anticancer human tumor 276233-004-R-J1-PDC patient-derived colon adenocarcinoma cell line growth inhibition [KRAS2]
Settings: for IC50: curve of first compound; for viability, T/C: stronger effect = lower value
Text: Multicellular complex tumor spheroid response to RAS pathway inhibitors in combination with a targeted agents in patient-derived cell lines with oncogenic KRAS variants from multiple cancer types
A high-throughput screen of multi-cell type tumor spheroids was designed to identify active combinations of targeted small molecules and KRAS pathway inhibitors. Complex spheroids include a stromal component modeled by human endothelial cells (HUVEC) and fibroblasts modeled by human mesenchymal stem cells (MSCs). The concentration ranges selected for each drug and investigational agent were based upon clinically achievable concentrations if the clinical Cmax of the agent was known.
Compounds. The drugs and investigational agents: BI-3406 (NSC825286), BAY-293 (NSC824723), batoprotafib (TNO155; NSC825523), sotorasib (AMG 510; NSC818433), MRTX1257 (NSC819558), elimusertib (BAY 1895344; NSC800525), molibresib (GSK525762; NSC774829), temuterkib (LY3214996; NSC803410), venetoclax (NSC766270), alisertib (NSC759677), olaparib (NSC753686), talazoparib (NSC767125), erdafitinib (NSC781556), ipatasertib (NSC767898), cabozantinib (NSC761068), nintedanib (NSC756659), abemaciclib (NSC768073), docetaxel (NSC628503), trametinib (NSC758246), and sapanisertib (NSC764658) were obtained from the National Cancer Institute (NCI) Developmental Therapeutics Program Chemical Repository. The FDA-approved anticancer drug set is available from the Developmental Therapeutics Program. […] The stock solutions were prepared in dimethyl sulfoxide (DMSO, Sigma-Aldrich, St. Louis, MO, cat. D2650) at 800-fold the tested concentration and stored at -70 degrees C prior to their use. All drugs and investigational agents were tested over a range starting from a high concentration at or near the clinical Cmax and decreasing in half-log increments. If the clinical Cmax for an agent had not been determined, the highest concentration tested was 10 microM.
Cell Culture. All cells were maintained in an incubator at 37 degrees C and 5% CO2 with 95% humidity. The PDC lines were cultured according to standard operating procedures established by the NCI PDMR (https://pdmr.cancer.gov/sops/default.htm). Briefly, all PDCs were thawed and cultured in Matrigel-coated flasks prepared with a working solution of 1X Ham's F-12 nutrient mix, without supplementation (Invitrogen, Waltham, MA, cat. 11765054), 100 U/mL penicillin-streptomycin (Invitrogen, cat. 15140122), and 2.5% Matrigel (Corning Inc., Corning, NY, cat. 354248) for the first three passages. All PDCs were cultured in complete DMEM/F-12 media containing advanced DMEM/F-12 (Invitrogen, cat. 12634028), 4.9% defined fetal bovine serum, heat inactivated (HyClone Laboratories Inc., Logan, UT, cat. SH30070.03HI), 389 ng/mL hydrocortisone (Sigma-Aldrich, cat. H4001), 9.7 ng/mL human EGF recombinant protein (Invitrogen, cat. PHG0313), 23.4 microg/mL adenine (Sigma-Aldrich, cat. A2786), 97.3 U/mL penicillin-streptomycin (Invitrogen, cat. 15140122), 1.9 mM L-glutamine (Invitrogen, cat. 25030081), and 9.7 microM Y-27632 dihydrochloride (Tocris Bioscience, Bristol, United Kingdom, cat. 1254). The PDCs were cultured in complete DMEM/F12 media without 9.7 microM Y-27632 dihydrochloride for at least two passages prior to the screen. The established cell line HOP-62 was cultured in RPMI 1640 medium, HEPES (Invitrogen, cat. 22400105) with 10% defined fetal bovine serum (HyClone Laboratories Inc., cat. SH30070.03) and 2 mM L-glutamine (Invitrogen, cat. 25030081). The pooled donor HUVEC were cultured in endothelial cell growth medium 2 (PromoCell, Heidelberg, Germany, cat. C-22011) and the hMSC were cultured in mesenchymal stem cell growth medium 2 (PromoCell, cat. C-28009). For all experiments, HUVEC and hMSC were used at passages </=5, while the malignant cell lines were used at passages </=15. […]

[1] = second compound 0.1 µM, first compound 0.0316 µM
[2] = second compound 0.1 µM, first compound 0.1 µM
[3] = second compound 0.1 µM, first compound 0.316 µM
[4] = second compound 0.1 µM, first compound 1 µM
[5] = second compound 0.1 µM, first compound 3.16 µM
[6] = second compound 0.1 µM, first compound 10 µM
[7] = second compound 0.316 µM, first compound 0.0316 µM
[8] = second compound 0.316 µM, first compound 0.1 µM
[9] = second compound 0.316 µM, first compound 0.316 µM
[10] = second compound 0.316 µM, first compound 1 µM
[11] = second compound 0.316 µM, first compound 3.16 µM
[12] = second compound 0.316 µM, first compound 10 µM
[13] = second compound 1 µM, first compound 0.0316 µM
[14] = second compound 1 µM, first compound 0.1 µM
[15] = second compound 1 µM, first compound 0.316 µM
[16] = second compound 1 µM, first compound 1 µM
[17] = second compound 1 µM, first compound 3.16 µM
[18] = second compound 1 µM, first compound 10 µM
[19] = second compound 3.16 µM, first compound 0.0316 µM
[20] = second compound 3.16 µM, first compound 0.1 µM
[21] = second compound 3.16 µM, first compound 0.316 µM
[22] = second compound 3.16 µM, first compound 1 µM
[23] = second compound 3.16 µM, first compound 3.16 µM
[24] = second compound 3.16 µM, first compound 10 µM
[25] = second compound 10 µM, first compound 0.0316 µM
[26] = second compound 10 µM, first compound 0.1 µM
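Also: cells exposed to agents for seven days before viability read.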
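For viability, T/C in this document: 100% = DMSO vehicle control wells and lower values mean fewer viable cells.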

CC1(C)CCC(CN2CCN(c3ccc(C(=O)NS(=O)(=O)c4ccc(NCC5CCOCC5)c([N+](=O)[O-])c4)c(Oc4cnc5[nH]ccc5c4)c3)CC2)=C(c2ccc(Cl)cc2)C1 + COc1cc2nc(C)nc(NC(C)c3cc(N)cc(C(F)(F)F)c3)c2cc1OC1CCOC1
IC50 (second compound 0.1 µM): > 10 µM
IC50 (second compound 0.316 µM): > 10 µM
IC50 (second compound 1 µM): > 10 µM
IC50 (second compound 3.16 µM): > 10 µM
IC50 (second compound 10 µM): < 0.0316 µM
viability, T/C [1]: 97.5%
viability, T/C [2]: 97%
viability, T/C [3]: 73.6%
viability, T/C [4]: 95.5%
viability, T/C [5]: 68.8%
viability, T/C [6]: 69.7%
viability, T/C [7]: 104%
viability, T/C [8]: 84.8%
viability, T/C [9]: 95.9%
viability, T/C [10]: 96.3%
viability, T/C [11]: 67%
viability, T/C [12]: 72.8%
viability, T/C [13]: 102%
viability, T/C [14]: 87.3%
viability, T/C [15]: 89.6%
viability, T/C [16]: 87.3%
viability, T/C [17]: 70.1%
viability, T/C [18]: 60.6%
viability, T/C [19]: 79.1%
viability, T/C [20]: 120%
viability, T/C [21]: 81.8%
viability, T/C [22]: 103%
viability, T/C [23]: 78.3%
viability, T/C [24]: 57.8%
viability, T/C [25]: 23.9%
viability, T/C [26]: 31.8%
viability, T/C (second compound 10 µM, first compound 0.316 µM): 25%
viability, T/C (second compound 10 µM, first compound 1 µM): 41.3%
viability, T/C (second compound 10 µM, first compound 3.16 µM): 38.8%
viability, T/C (second compound 10 µM, first compound 10 µM): 54.8%

CN(C)C/C=C/C(=O)Nc1cc2c(Nc3ccc(F)c(Cl)c3)ncnc2cc1O[C@H]1CCOC1 + C=CC(=O)N1CCN(c2nc(=O)n(-c3c(C)ccnc3C(C)C)c3nc(-c4c(O)cccc4F)c(F)cc23)C(C)C1
IC50 (second compound 0.1 µM): > 0.1 µM
IC50 (second compound 0.316 µM): > 0.1 µM
IC50 (second compound 1 µM): > 0.1 µM
IC50 (second compound 3.16 µM): > 0.1 µM
IC50 (second compound 10 µM): > 0.1 µM
viability, T/C (second compound 0.1 µM, first compound 0.000316 µM): 93.5%
viability, T/C (second compound 0.1 µM, first compound 0.001 µM): 97.1%
viability, T/C (second compound 0.1 µM, first compound 0.00316 µM): 72%
viability, T/C (second compound 0.1 µM, first compound 0.01 µM): 87.6%
viability, T/C [1]: 75.8%
viability, T/C [2]: 85.3%
viability, T/C (second compound 0.316 µM, first compound 0.000316 µM): 109%
viability, T/C (second compound 0.316 µM, first compound 0.001 µM): 80.8%
viability, T/C (second compound 0.316 µM, first compound 0.00316 µM): 83%
viability, T/C (second compound 0.316 µM, first compound 0.01 µM): 67.6%
viability, T/C [7]: 88%
viability, T/C [8]: 87%
viability, T/C (second compound 1 µM, first compound 0.000316 µM): 103%
viability, T/C (second compound 1 µM, first compound 0.001 µM): 101%
viability, T/C (second compound 1 µM, first compound 0.00316 µM): 80.8%
viability, T/C (second compound 1 µM, first compound 0.01 µM): 82.6%
viability, T/C [13]: 84.6%
viability, T/C [14]: 95.6%
viability, T/C (second compound 3.16 µM, first compound 0.000316 µM): 87.1%
viability, T/C (second compound 3.16 µM, first compound 0.001 µM): 77.8%
viability, T/C (second compound 3.16 µM, first compound 0.00316 µM): 85.9%
viability, T/C (second compound 3.16 µM, first compound 0.01 µM): 69.9%
viability, T/C [19]: 78.6%
viability, T/C [20]: 69.7%
viability, T/C (second compound 10 µM, first compound 0.000316 µM): 66%
viability, T/C (second compound 10 µM, first compound 0.001 µM): 65.8%
viability, T/C (second compound 10 µM, first compound 0.00316 µM): 57.8%
viability, T/C (second compound 10 µM, first compound 0.01 µM): 66.8%
viability, T/C [25]: 69.1%
viability, T/C [26]: 84.9%

CCNC(=O)CC1N=C(c2ccc(Cl)cc2)c2cc(OC)ccc2-n2c(C)nnc21 (stereo not given) + C=CC(=O)N1CCN(c2nc(OCC3CCCN3C)nc3c2CCN(c2cccc4cccc(C)c24)C3)CC1CC#N
IC50 (second compound 0.0316 µM): > 10 µM
IC50 (second compound 0.1 µM): > 10 µM
IC50 (second compound 0.316 µM): > 10 µM
IC50 (second compound 1 µM): > 10 µM
IC50 (second compound 3.16 µM): 0.189 µM
viability, T/C (second compound 0.0316 µM, first compound 0.0316 µM): 94.8%
viability, T/C (second compound 0.0316 µM, first compound 0.1 µM): 80.9%
viability, T/C (second compound 0.0316 µM, first compound 0.316 µM): 63.6%
viability, T/C (second compound 0.0316 µM, first compound 1 µM): 57.1%
viability, T/C (second compound 0.0316 µM, first compound 3.16 µM): 68.6%
viability, T/C (second compound 0.0316 µM, first compound 10 µM): 62%
viability, T/C [1]: 95.1%
viability, T/C [2]: 81.2%
viability, T/C [3]: 85.6%
viability, T/C [4]: 60.2%
viability, T/C [5]: 59.5%
viability, T/C [6]: 62.3%
viability, T/C [7]: 94.8%
viability, T/C [8]: 83.1%
viability, T/C [9]: 83.3%
viability, T/C [10]: 76.2%
viability, T/C [11]: 65.4%
viability, T/C [12]: 63.6%
viability, T/C [13]: 80.5%
viability, T/C [14]: 66.1%
viability, T/C [15]: 56.2%
viability, T/C [16]: 57.6%
viability, T/C [17]: 56.6%
viability, T/C [18]: 61.2%
viability, T/C [19]: 60.3%
viability, T/C [20]: 59.8%
viability, T/C [21]: 42%
viability, T/C [22]: 33.7%
viability, T/C [23]: 36.4%
viability, T/C [24]: 38.7%
